Reference: patent US5036097A, “Phenylbutyl nitrone compositions and methods for prevention of gastric ulceration” (Oklahoma Medical Research Foundation, priority 1990, dated 1991)

How the values were obtained:
[1] = tested on: gastric ulceration; assay: NSAID-induced gastric ulceration in rats (surface area of ulceration); type: in vivo, rat (male Sprague-Dawley); conditions: aspirin 200, diflunisal 125, naproxen 150, ibuprofen 230 mg/kg; oral gavage, 4 h
Procedure: Male Sprague-Dawley rats (Charles River, Wilmington, Mass.) weighing 300-325 g were housed individually in wire bottomed cages to prevent ingestion of hair and feces. […] Piroxicam or aspirin and other NSAIDS were suspended in a vehicle of 1% carboxymethylcellulose, 0.1% Tween 80 and 0.15 M HCl, and administered in a volume of 1 ml on the morning of study by oral gavage using an 18 gauge curved blunt needle (Popper and Sons, New Hyde Park, N.Y.). One ml of vehicle alone was administered for control experiments. HCl was added to the vehicle to insure an acid environment in the stomach in all studies. […] Four hours after the administration of NSAID or vehicle, rats were euthanized with sodium pentobarbital (100 mg/kg IP), and the surface area of ulceration per stomach was quantitated using morphometric techniques. Stomachs were removed, the lumen was exposed by an incision along the radius of greater curvature, and the stomach was washed in phosphate buffered saline. The luminal surface was laid out on a flat surface with gross folds removed by gentle distension. The percentage of surface involved with submucosal hemorrhage was then determined by point counting, as described by Weibel, E. R. Stereological Methods: Practical Methods for Biological Morphometry. […] This was done by tabulation of the percentage of points over ulcerations using a point counting eyepiece graticle (16×16 points in a square format). At the 12X magnification used on the Wild dissecting microscope (Wild-Heerbrugg, Basel, Switzerland), the graticle covered a 1 cm^2 area of the surface. Four to five non-overlapping sampling sites were taken to fully cover the exposed surface. To determine the total luminal surface area, the outline of the outer boundary of the stomach was traced using a transparent acetate sheet, and the area was determined from planimetry. The surface area of ulcerated regions per stomach was then determined by multiplying the surface density of ulceration regions by the luminal surface area of the stomach.
Differences in total luminal surface area in cm^2, surface area of ulcerated regions per stomach and biochemical analyses between each treatment intervention and its corresponding untreated control group are compared using the Mann-Whitney U Test, Dixon, W. J., Massey, F. J., Jr. Introduction to statistical methods, 4th edition. […] In vitro studies are compared using the Student's unpaired T-test, Dixon, W. J., Massey, F. J., Jr. Introduction to statistical methods, 4th edition. […] Values are expressed as mean±SEM. Significance is assumed when P<0.05.
Phenyl N-tert-butyl nitrone is obtained from Aldrich Chemicals, Milwaukee, Wis. All other chemicals and pharmaceuticals are from Sigma Chemical.

[2] = tested on: isolated perfused gastric mucosa; conditions: cited from earlier work
[3] = tested on: piroxicam-induced gastric ulcers; assay: suppression of piroxicam-induced gastric ulcers by interventions (PBN, free radical scavengers, ascorbate); type: in vivo, rat (male Sprague-Dawley)
Procedure: FIG. 2 is a graph of % control ulceration from piroxicam versus the % ulceration in the presence of free radical scavengers. The […] scavenger dimethylthiourea (DMTU, 500 mg/kg i.p.) was given 24 hours and 1 hour before piroxicam. […] The antioxidant butylated hydroxytoluene (BHT, 25 mg/kg/day i.p. in corn oil) was given for three days before and again 1 hour before piroxicam. The % control ulceration is determined by averaging the ratios of cm^2 ulceration in control stomachs from rats given piroxicam alone, and multiplying×100. +P< 0.01 compared to piroxicam alone.
Male Sprague-Dawley rats (Charles River, Wilmington, Mass.) weighing 300-325 g were housed individually in wire bottomed cages to prevent ingestion of hair and feces. Animals were maintained without food for 48 hours and without water for 24 hours prior to each experiment. Piroxicam or aspirin and other NSAIDS were suspended in a vehicle of 1% carboxymethylcellulose, 0.1% Tween 80 and 0.15 M HCl, and administered in a volume of 1 ml on the morning of study by oral gavage using an 18 gauge curved blunt needle (Popper and Sons, New Hyde Park, N.Y.). One ml of vehicle alone was administered for control experiments. HCl was added to the vehicle to insure an acid environment in the stomach in all studies. […] Four hours after the administration of NSAID or vehicle, rats were euthanized with sodium pentobarbital (100 mg/kg IP), and the surface area of ulceration per stomach was quantitated using morphometric techniques. Stomachs were removed, the lumen was exposed by an incision along the radius of greater curvature, and the stomach was washed in phosphate buffered saline. The luminal surface was laid out on a flat surface with gross folds removed by gentle distension. The percentage of surface involved with submucosal hemorrhage was then determined by point counting, as described by Weibel, E. R. Stereological Methods: Practical Methods for Biological Morphometry. Academic Press, New York 1980. This was done by tabulation of the percentage of points over ulcerations using a point counting eyepiece graticle (16×16 points in a square format). At the 12X magnification used on the Wild dissecting microscope (Wild-Heerbrugg, Basel, Switzerland), the graticle covered a 1 cm^2 area of the surface. Four to five non-overlapping sampling sites were taken to fully cover the exposed surface. To determine the total luminal surface area, the outline of the outer boundary of the stomach was traced using a transparent acetate sheet, and the area was determined from planimetry. The surface area of ulcerated regions per stomach was then determined by multiplying the surface density of ulceration regions by the luminal surface area of the stomach.
Differences in total luminal surface area in cm^2, surface area of ulcerated regions per stomach and biochemical analyses between each treatment intervention and its corresponding untreated control group are compared using the Mann-Whitney U Test, Dixon, W. J., Massey, F. J., Jr. Introduction to statistical methods, 4th edition. (New York: McGraw Hill, 1983). […] In vitro studies are compared using the Student's unpaired T-test, Dixon, W. J., Massey, F. J., Jr. Introduction to statistical methods, 4th edition. (New York: McGraw Hill, 1983). Values are expressed as mean±SEM. Significance is assumed when P<0.05.
In each experiment, the surface area of gastric ulceration produced by piroxicam in 15 treated rats was compared to that in 15 rats of the same age and size that were fasted simultaneously but which received no intervention. Phenylbutyl nitrone (30 mg/kg) was given orally in water 1 hour before piroxicam and also added to vehicle when piroxicam was administered. When intervention were given with piroxicam, the pH of the final mixture was adjusted if necessary to equal that of piroxicam and vehicle alone.

[4] = in vivo acute toxicity in rodents; conditions: doses up to 3 g/kg in rodents
Excerpt: (§1) In vivo toxicity tests have indicated the following. […] An LD50 has yet to be determined because of the lack of toxicity.

[5] = acute i.v. toxicity in gerbils; type: in vivo; conditions: 10 to 300 mg/kg i.v., injected within 60 seconds
Excerpt: as §1

[6] = continuous i.v. administration toxicity in gerbils; type: in vivo; conditions: 50 mg/kg/hr for a total of 48 hr
Excerpt: as §1

[7] = bioavailability / distribution estimate; type: in vivo
[8] = pharmacokinetic studies, plasma half-life; type: in vivo; conditions: rat; limited pharmacokinetic studies
Excerpt: Limited pharmokinetic studies indicate that the plasma half-life in the rat is three to four hours.

[9] = pH stability of PBN; type: physicochemical; conditions: degrades at pH less than approximately
[10] = previous studies, standard techniques; cited from earlier work

## COc1ccc2cc([C@H](C)C(=O)O)ccc2c1 [naproxen]
[1]
  gastric ulceration caused by NSAID: 0.370±0.056 cm^2

## CC(C)Cc1ccc(C(C)C(=O)O)cc1 (centres unmarked) [ibuprofen]
[1]
  gastric ulceration caused by NSAID: 0.644±0.110 cm^2

## CC(=O)Oc1ccccc1C(=O)O [aspirin]
[1]
  gastric ulceration caused by NSAID: 0.972±0.318 cm^2
[2]
  mucosal adenosine triphosphate (ATP) and phosphocreatine (PC): decreases mucosal adenosine triphosphate (ATP) and phosphocreatine (PC)

## O=C(O)c1cc(-c2ccc(F)cc2F)ccc1O [diflunisal]
[1]
  gastric ulceration caused by NSAID: 0.597±0.103 cm^2

## CC(C)(C)[N+]([O-])=Cc1ccccc1 [PBN, N-tert-Butyl-α-phenylnitrone]
[3]; piroxicam 23 mg/kg only, or plus PBN 30 mg/kg orally 1 hour before and with piroxicam, p<0.0052
  ulcerations/unit area: 0.077±0.104 ulcerations/unit area
[3]; piroxicam 23 mg/kg, FIG. 2
  inhibition of piroxicam-induced ulcers, in words: markedly inhibited
[4]
  adverse effects, acute doses: no adverse effects
[5]
  acute toxic effects, i.v.: no acute toxic effects
[6]
  adverse effect, continuous i.v. administration: no adverse effect
[7]; brain, read-out: brain level as % of the plasma concentration
  Kp: 0.8
[7]; in vivo
  distribution, in words: widely available throughout the body and is able to cross all of the barriers to distribution, including the blood brain barrier
[8]
  plasma half-life: three to four
[9]
  pH below which PBN degrades: 3 to 4 pH
[10]
  mutagenicity: not mutagenic

## O=C1O[C@H]([C@@H](O)CO)C(O)=C1O [ascorbate]
[3]; ascorbate plus piroxicam, P<0.001
  increase in ulceration compared to control stomachs treated with piroxicam alone: over 600%
[3]; ascorbate-treated stomachs (with piroxicam) vs piroxicam alone, P<0.001
  ulceration (ascorbate experiment): 0.194±0.039 cm^2
